{
  "source": "patent US20230000869A1",
  "about": "“NOVEL ALK2 INHIBITORS AND METHODS FOR INHIBITING BMP SIGNALING” (The Brigham and Women's Hospital, Inc., priority 2017, published 2023)",
  "target": "T1, Aldehyde Oxidase (AO) (Homo sapiens, UniProt Q06278)",
  "T1 construct": "tissue Frontage Laboratories (performed the study); host or cells: human liver cytosol (HLC), 2 mg/ml",
  "T1 sequence (Q06278 1-1338)": "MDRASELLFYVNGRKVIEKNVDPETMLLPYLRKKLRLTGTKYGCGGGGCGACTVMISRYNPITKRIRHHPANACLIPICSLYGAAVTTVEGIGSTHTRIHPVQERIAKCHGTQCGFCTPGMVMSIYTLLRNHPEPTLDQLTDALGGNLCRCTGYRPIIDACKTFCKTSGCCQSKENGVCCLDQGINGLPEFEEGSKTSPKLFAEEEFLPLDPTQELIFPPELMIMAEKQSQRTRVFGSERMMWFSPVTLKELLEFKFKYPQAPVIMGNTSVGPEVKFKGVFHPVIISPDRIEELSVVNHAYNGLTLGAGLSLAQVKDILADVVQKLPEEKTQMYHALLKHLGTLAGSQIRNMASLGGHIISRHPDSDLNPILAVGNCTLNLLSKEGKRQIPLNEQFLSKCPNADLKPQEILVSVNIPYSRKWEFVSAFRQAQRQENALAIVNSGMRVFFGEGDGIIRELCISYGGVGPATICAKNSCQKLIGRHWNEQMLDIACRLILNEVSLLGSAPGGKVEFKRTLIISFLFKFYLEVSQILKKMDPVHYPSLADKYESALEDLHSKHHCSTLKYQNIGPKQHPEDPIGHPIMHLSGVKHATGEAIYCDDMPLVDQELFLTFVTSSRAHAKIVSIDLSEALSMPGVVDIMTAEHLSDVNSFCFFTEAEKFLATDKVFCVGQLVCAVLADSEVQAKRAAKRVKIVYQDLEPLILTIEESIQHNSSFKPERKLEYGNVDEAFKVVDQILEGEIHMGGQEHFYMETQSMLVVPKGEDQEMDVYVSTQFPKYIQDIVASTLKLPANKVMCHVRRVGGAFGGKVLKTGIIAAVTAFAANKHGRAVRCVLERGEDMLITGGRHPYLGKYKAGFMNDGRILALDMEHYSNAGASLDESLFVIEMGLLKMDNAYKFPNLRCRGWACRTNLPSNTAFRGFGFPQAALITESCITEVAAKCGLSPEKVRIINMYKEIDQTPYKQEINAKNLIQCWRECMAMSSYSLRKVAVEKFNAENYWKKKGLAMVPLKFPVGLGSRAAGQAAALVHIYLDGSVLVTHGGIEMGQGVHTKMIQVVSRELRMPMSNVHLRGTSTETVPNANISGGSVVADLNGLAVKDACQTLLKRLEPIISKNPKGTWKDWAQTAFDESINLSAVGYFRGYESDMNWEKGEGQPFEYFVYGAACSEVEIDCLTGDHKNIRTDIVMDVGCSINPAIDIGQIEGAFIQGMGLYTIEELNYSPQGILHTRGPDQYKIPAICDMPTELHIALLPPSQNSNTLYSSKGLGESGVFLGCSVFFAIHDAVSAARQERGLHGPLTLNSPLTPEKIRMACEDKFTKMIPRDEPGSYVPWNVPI",
  "experiment": "Aldehyde oxidase (AO) oxidation study, metabolic stability in human liver cytosol",
  "type": "in vitro ADME",
  "details": "human liver cytosol 2 mg/ml, 1 μM substrate, 37° C.",
  "procedure": "Experimental Procedure for Aldehyde Oxidase (AO) Oxidation Study (Frontage Laboratories (700 Pennsylvania Dr. Exton, Pa. 19341)\nDetermination of the of metabolic stability in human liver cytosol (HLC) and the identification of corresponding metabolites was done by incubating substrates (1 μM final concentration for metabolic stability or 10 μM final concentration for metabolite ID) with HLC (2 mg/ml, final concentration) in 100 mM potassium phosphate at pH 7.4. The reaction was initiated by adding HLC without preincubation. The mixture was then incubated at 37° C. for 1 h and samples were taken at 0, 30 and 60 min for analysis. The reaction was terminated by adding acetonitrile (ACN) (3×) followed by vortexing for 1 min then centrifuged. For the metabolic stability study, aliquotes of the supernatants were transferred to clean tubes and directly used for LC/MS/MS analysis. For the identification of metabolites, aliquots of supernatants were transferred to clean tubes and dried under a stream of N2. The residue was reconstituted in 30/70 (v/v) acetonitrile/water solution and injected onto LC/UV/MS system.\nThe instrument and method for the metabolic stability are as following: LC/MS/MS system: Agilent 1100 HPLC interfaced to Sciex API4000 mass spectrometer (ESI); HPLC column: ACE 3 C18-PFP, 50×2.1 mm, 5 μm. […]",
  "data": [
    {"smiles": "c1ccc2c(-c3cnn4cc(-c5ccc(N6CCNCC6)cc5)cnc34)ccnc2c1", "note": "[TRND00262637-13]", "values": [
      {"measurement": "30 minutes (%)", "setting": "pH 7.4, sample at 30 min", "value": 0.06, "unit": "%"},
      {"measurement": "60 minutes (%)", "setting": "pH 7.4, sample at 60 min", "value": 0.02, "unit": "%"}
    ]}
  ]
}
